Our source for the T/C values is PubChem BioAssay AID248 (DTP/NCI, 2004).

Several values for one entry are separate records, joined by “and”; a condition that tells them apart may be missing. Equal entries are not always repeated. Toxic doses and inconclusive results are not listed.

This assay relates to L1210 leukemia ip in BDF1 mice, survival T/C. In words: NCI In Vivo Anticancer Drug Screen. Data for tumor model L1210 Leukemia (intraperitoneal) in B6D2F1 (BDF1) mice. The following applies: endpoint: mean survival time, higher = longer survival. The procedure, abridged:
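Transplanted-tumor mice were given test agent; controls received vehicle only. Survival readings from the two groups were divided (treated over control).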

[1] abbreviates: dose: 50.0 mg/kg/injection, schedule: Q01DX009 (ip), vehicle: saline with Tween-80.
Setting [2] is: dose: 100.0 mg/kg/injection, schedule: Q01DX009 (ip), vehicle: saline with Tween-80.
Where [3] appears, read: dose: 200.0 mg/kg/injection, schedule: Q01DX009 (ip), vehicle: saline with Tween-80.
The mark [4] stands for this setting: dose: 100.0 mg/kg/injection, schedule: Q01DX009 (ip), vehicle: Klucel (hydroxypropylcellulose) (HPC).
Setting [5] is: dose: 100.0 mg/kg/injection, schedule: Q04DX003 (ip), vehicle: Klucel (hydroxypropylcellulose) (HPC).
[6] abbreviates: dose: 200.0 mg/kg/injection, schedule: Q01DX009 (ip), vehicle: Klucel (hydroxypropylcellulose) (HPC).
[7] abbreviates: dose: 400.0 mg/kg/injection, schedule: Q01DX009 (ip), vehicle: Klucel (hydroxypropylcellulose) (HPC).
Where [8] appears, read: dose: 400.0 mg/kg/injection, schedule: Q04DX003 (ip), vehicle: Klucel (hydroxypropylcellulose) (HPC).
The mark [9] stands for this setting: dose: 200.0 mg/kg/injection, schedule: Q04DX003 (ip), vehicle: Klucel (hydroxypropylcellulose) (HPC).
[10] abbreviates: dose: 6.25 mg/kg/injection, schedule: Q04DX003 (ip), vehicle: saline.
[11] abbreviates: dose: 12.5 mg/kg/injection, schedule: Q04DX003 (ip), vehicle: saline.
The mark [12] stands for this setting: dose: 25.0 mg/kg/injection, schedule: Q04DX003 (ip), vehicle: saline.
[13] abbreviates: dose: 50.0 mg/kg/injection, schedule: Q04DX003 (ip), vehicle: saline.
The mark [14] stands for this setting: dose: 400.0 mg/kg/injection, schedule: Q01DX009 (ip), vehicle: saline with Tween-80.
Where [15] appears, read: dose: 100.0 mg/kg/injection, schedule: Q01DX001 (ip), vehicle: carboxymethylcellulose (CMC).
The mark [16] stands for this setting: dose: 200.0 mg/kg/injection, schedule: Q01DX001 (ip), vehicle: carboxymethylcellulose (CMC).
Setting [17] is: dose: 25.0 mg/kg/injection, schedule: Q01DX009 (ip), vehicle: saline.

In the case of `COc1cccc(/C=N\NC(=O)CNC(=O)Nc2ccc(Cl)c(Cl)c2)c1OC`, the T/C reads like this: under setting [1], 93 % of control; under setting [2], 93 % of control; under setting [3], 86 % of control.

Turning to `Cc1cccc(C(=O)C(O)(c2ccccc2)C2CCCCC2=O)c1` (stereo not given), the T/C is 100 % of control (dose: 100.0 mg/kg/injection, schedule: Q04DX002 (ip), vehicle: Klucel (hydroxypropylcellulose) (HPC)); 92 % of control (dose: 200.0 mg/kg/injection, schedule: Q04DX002 (ip), vehicle: Klucel (hydroxypropylcellulose) (HPC)); 114 % of control (dose: 400.0 mg/kg/injection, schedule: Q04DX002 (ip), vehicle: Klucel (hydroxypropylcellulose) (HPC)).

As to `Nc1cc(C(F)(F)F)ccc1Cl`, the T/C runs as follows: (dose: 100.0 mg/kg/injection, schedule: Q04DX003 (ip), vehicle: alcohol) 100 % of control; (dose: 200.0 mg/kg/injection, schedule: Q04DX003 (ip), vehicle: alcohol) 96 % of control; (dose: 400.0 mg/kg/injection, schedule: Q04DX003 (ip), vehicle: alcohol) 97 % of control.

On to `COc1ccccc1CC(C)(C)O`, for which the T/C was 98 % of control under setting [1], 95 % of control under setting [2] and 101 % of control under setting [3].

Take `CC1C(=O)OC2C1CCC1(C)C=CC(=O)C(C)C21` (stereo not given): the T/C was 102 % of control (dose: 75.0 mg/kg/injection, schedule: Q01DX001 (ip), vehicle: saline) and 103 % of control (dose: 150.0 mg/kg/injection, schedule: Q01DX001 (ip), vehicle: saline).

As to `O=C1c2ccccc2-c2cc(-c3ccccc3)cc(-c3ccccc3)c21`, the T/C by setting is: under setting [4], 96 % of control; under setting [5], 104 % of control; under setting [6], 92 % of control; under setting [7], 94 % of control; under setting [8], 88 % of control.

As for `Cc1cc(NC(=O)NC/C=C/Br)c2ccccc2n1`, the T/C was 97 % of control (dose: 100.0 mg/kg/injection, schedule: Q01DX001 (ip), vehicle: Klucel (hydroxypropylcellulose) (HPC)); 98 % of control under setting [5]; 108 % of control (dose: 200.0 mg/kg/injection, schedule: Q01DX001 (ip), vehicle: Klucel (hydroxypropylcellulose) (HPC)); 93 % of control under setting [9]; 97 % of control (dose: 400.0 mg/kg/injection, schedule: Q01DX001 (ip), vehicle: Klucel (hydroxypropylcellulose) (HPC)); 101 % of control under setting [8].

Consider `O=c1[nH]cnc2nc(Br)[nH]c12`, for which the T/C is, setting by setting: (dose: 100.0 mg/kg/injection, schedule: Q01DX001 (ip), vehicle: saline) 104 % of control; (dose: 200.0 mg/kg/injection, schedule: Q01DX001 (ip), vehicle: saline) 95 % of control; (dose: 400.0 mg/kg/injection, schedule: Q01DX001 (ip), vehicle: saline) 98 % of control.

For `CCCCn1ccnc1C`, the T/C runs as follows: under setting [10], 113 % of control and 90 % of control; under setting [11], 93 % of control and 107 % of control; under setting [12], 113 % of control and 265 % of control and 89 % of control; under setting [13], 106 % of control and 289 % of control.

With `CCOC(=O)/C(C)=N/O`, the T/C runs as follows: (dose: 100.0 mg/kg/injection, schedule: Q04DX002 (ip), vehicle: saline with Tween-80) 96 % of control; (dose: 200.0 mg/kg/injection, schedule: Q04DX002 (ip), vehicle: saline with Tween-80) 116 % of control; (dose: 400.0 mg/kg/injection, schedule: Q04DX002 (ip), vehicle: saline with Tween-80) 104 % of control.

On to `O=C1C(Br)=C(N2CC2)C(=O)C(Br)=C1N1CC1`, for which the T/C reads like this: (dose: 1.56 mg/kg/injection, schedule: Q04DX003 (ip), vehicle: saline) 104 % of control; (dose: 3.12 mg/kg/injection, schedule: Q04DX003 (ip), vehicle: saline) 109 % of control; under setting [10], 104 % of control; under setting [11], 106 % of control; under setting [12], 104 % of control; under setting [13], 103 % of control.

Take `NC(N)=N/N=C/C(N)(/C=N/N=C(N)N)/C=N/N=C(N)N`: the T/C was 106 % of control (dose: 120.0 mg/kg/injection, schedule: Q01DX Z (oral), vehicle: saline); 114 % of control (dose: 240.0 mg/kg/injection, schedule: Q01DX Z (oral), vehicle: saline); 113 % of control (dose: 480.0 mg/kg/injection, schedule: Q01DX Z (oral), vehicle: saline); 106 % of control (dose: 960.0 mg/kg/injection, schedule: Q01DX Z (oral), vehicle: saline).

With `Cc1ccc(C(C)(C)C)c(OCC2=NCCN2)c1`, the T/C by setting is: (dose: 10.0 mg/kg/injection, schedule: Q04DX003 (ip), vehicle: Klucel (hydroxypropylcellulose) (HPC)) 96 % of control; (dose: 12.5 mg/kg/injection, schedule: Q01DX009 (ip), vehicle: Klucel (hydroxypropylcellulose) (HPC)) 86 % of control; (dose: 20.0 mg/kg/injection, schedule: Q04DX003 (ip), vehicle: Klucel (hydroxypropylcellulose) (HPC)) 90 % of control; (dose: 25.0 mg/kg/injection, schedule: Q01DX009 (ip), vehicle: Klucel (hydroxypropylcellulose) (HPC)) 96 % of control; (dose: 40.0 mg/kg/injection, schedule: Q04DX003 (ip), vehicle: Klucel (hydroxypropylcellulose) (HPC)) 96 % of control; (dose: 50.0 mg/kg/injection, schedule: Q01DX009 (ip), vehicle: Klucel (hydroxypropylcellulose) (HPC)) 104 % of control.

On to `C=COCCCCOC=C`, for which the T/C is 113 % of control under setting [5], 105 % of control under setting [9] and 105 % of control under setting [8].

As for `Cc1ccc(CC(=O)O)cc1C`, the T/C was 101 % of control under setting [2], 104 % of control under setting [3] and 102 % of control under setting [14].

For `C=C(C)C(O)CC(C)C` (stereo not given), the T/C runs as follows: under setting [15], 100 % of control; under setting [16], 100 % of control; (dose: 400.0 mg/kg/injection, schedule: Q01DX001 (ip), vehicle: carboxymethylcellulose (CMC)) 94 % of control.

For the compound `CC1(C)CN1P(=S)(N1CC1(C)C)N1CC1(C)C` (stereo not given), the T/C (dose: 12.5 mg/kg/injection, schedule: Q01DX009 (ip), vehicle: saline) was 98 % of control; the T/C (dose: 14.0 mg/kg/injection, schedule: Q01DX009 (ip), vehicle: saline) is 109 % of control; the T/C (dose: 22.0 mg/kg/injection, schedule: Q01DX009 (ip), vehicle: saline) was 112 % of control; the T/C under setting [17] is 94 % of control; the T/C (dose: 33.0 mg/kg/injection, schedule: Q01DX009 (ip), vehicle: saline) is 152 % of control; the T/C (dose: 44.0 mg/kg/injection, schedule: Q01DX001 (ip), vehicle: other) was 121 % of control. The T/C was 166 % of control and 169 % of control under setting [15]; 153 % of control (dose: 100.0 mg/kg/injection, schedule: Q01DX001 (ip), vehicle: other); 158 % of control (dose: 150.0 mg/kg/injection, schedule: Q01DX001 (ip), vehicle: other); 164 % of control under setting [16]; 120 % of control (dose: 200.0 mg/kg/injection, schedule: Q01DX009 (ip), vehicle: saline).

In the case of `CC#CCOCC1CN(c2ccccc2)C(=O)O1` (stereo not given), the T/C under setting [2] was 117 % of control; the T/C (dose: 100.0 mg/kg/injection, schedule: Q04DX003 (ip), vehicle: saline with Tween-80) was 95 % of control; the T/C under setting [3] was 103 % of control; the T/C (dose: 200.0 mg/kg/injection, schedule: Q04DX003 (ip), vehicle: saline with Tween-80) is 103 % of control; the T/C under setting [14] was 100 % of control; the T/C (dose: 400.0 mg/kg/injection, schedule: Q04DX003 (ip), vehicle: saline with Tween-80) is 101 % of control.

Take `CCCCOC(=O)CCCC(=O)OCCCC`: the T/C is, setting by setting: under setting [4], 98 % of control; under setting [5], 100 % of control; under setting [6], 97 % of control; under setting [9], 101 % of control; under setting [7], 95 % of control; under setting [8], 101 % of control.

On to `COc1ccc(OC)c(OC)c1CC(C)N` (stereo not given), for which the T/C was 108 % of control under setting [17] and 104 % of control (dose: 50.0 mg/kg/injection, schedule: Q01DX009 (ip), vehicle: saline).
